Experiments:
TNFα/TNFRI = tested on: TNFα/TNFRI; design: method as in PMID 16284179; settings: cited from earlier work
TNFα = settings: fluorescence binding assay; cited from earlier work
[1] = tested on: TNFα induced NF-κB activation in HEK cells; assay: HEK-Blue TNFα NF-κB secreted embryonic alkaline phosphatase reporter assay; type: cell-based, human; settings: HEK cells
Description: 80% confluent HEK-Blue™ TNFα were plated in flat bottom plates at 5 × 10^4 per well in 100 μl of DMEM containing 2 mM L-Glutamine, 100 U/ml Penicillin − 100 μg/ml Streptomycin and incubated at 37 °C, 5% CO2. Serial dilutions of compounds (ranging from 100 μM to 0.8 μM) were mixed with 400 pg/ml of human TNFα in DMEM containing 2% of FBS, 2 mM L-Glutamine, 100 U/ml Penicillin−100 μg/ml Streptomycin in U-bottom plates. After two hours of incubation at 37 °C, 5% CO2, 100 μl of the mix was added to the plated cells and incubated 24 hours at 37 °C, 5% CO2. 20 μl of supernatants were incubated for 3 hours with 180 μl of QUANTI-Blue™ to reveal secretion of phosphatase alcaline and plates were read at 620 nm with a spectrophotometer providing the optical density (OD).

[2] = design: method as in PMID 25160057; settings: cited from earlier work
[3] = tested on: human TNFα induced apoptosis on the L929 cell line; assay: Neutralization of human TNFα induced apoptosis in L929 cells (MTT); type: cell-based; settings: L929 cells
Description: 80% confluent L929 cells were plated in flat bottom plates at 4 × 10^5 cells per well in 100 μl of DMEM medium containing 10% FBS, 2 mM L-Glutamine, 100 U/ml Penicillin − 100 μg/ml Streptomycin and incubated for one night at 37 °C, 5% CO2. TNFα or TNFβ (150 pg/ml), Actinomycin D (4 μg/ml) and the compounds at different concentrations (ranging from 100 μM to 0.8 μM) were mixed in 150 μl DMEM medium 1% FBS, 2 mM L-Glutamine, 100 U/ml Penicillin−100 μg/ml Streptomycin in U-bottom plates. After two hours incubation at 37 °C, 5% CO2, 100 μl of the mix was added to the plated cells and incubated at 37 °C, 5% CO2 for 24 hours. Supernatants were discarded and 100 μl of MTT at 0.5 mg/ml were added to wells. After two hours, supernatants were discarded and 200 μl of DMSO were then added. Plates were read at 570 nm with a spectrophotometer providing the optical density (OD) of each well. The percentage of neutralization of TNFα by a compound was calculated using equation 3:3 %Neutra=ODcompound−ODTNFα/ODcells−ODTNFα×100
An IC50 could be computed from the percentage of neutralization for each compound.

Balb/C mice = assay: LPS/D-Galactosamine induced lethal shock (TNFα-dependent hepatic shock model); type: in vivo; settings: livers eight hours after LPS/D-Galactosamine
Description: 7 weeks-old Balb/C mice were force-fed with 100 μl of a solution of DMSO containing various doses of compound 1 (5 mg down to 0.5 mg) eight hours before receiving an intraperitoneal injection of 200 μl of PBS containing 0.1 μg of LPS and 20 mg of D-Galactosamine. A control group (DMSO) was force-fed with 100 μl of a solution of DMSO alone eight hours before to be injected with 200 μl of LPS/D-Galactosamine solution. Mice survival was monitored for 48 hours after the injection of LPS/D-Galactosamine.
7 weeks-old Balb/C mice were forced-fed with a solution of DMSO containing 5 mg of compound 1 eight hours before receiving an intraperitoneal injection of 200 μl of PBS containing 0.1 μg of LPS and 20 mg of D-Galactosamine. Eight hours after LPS/D-Galactosamine injection, mice were sacrificed by cervical dislocation and livers were harvested, fixed in 4% formalin and embedded in paraffin. […] Slides were scanned with a slide scanner (Perkin Elmer) and analyzed with Pannoramic viewer (3D HISTECH).
7 weeks-old Balb/C mice were forced-fed with a solution of DMSO containing 5 mg of compound 1 eight hours before receiving an intraperitoneal injection of 200 μl of PBS containing 0.1 μg of LPS and 20 mg of D-Galactosamine. Three hours after LPS/D-Galactosamine injection, mice were anesthetized with ketamine/xylazine to recover blood by cardiac puncture. Sera were kept at −80 °C until assay.
TNFα in serum was quantified using U-CyTech biosciences kits (Utrecht, The Netherlands) according to manufacturer’s procedures.
7 weeks-old Balb/C mice were forced-fed with a solution of DMSO containing 5 mg of compound 1 eight hours before receiving an intraperitoneal injection of 200 μl of PBS containing 0.1 μg of LPS and 20 mg of D-Galactosamine. Eight hours after, mice were anesthetized by an injection of ketamine/xylazine to recover blood by cardiac puncture. Sera were kept at −80 °C until assay. Quantification of AST/ALT was performed using Architec ci 8200 analyser (Abbott) with reagent kits from Abbott.

Compound | IC50 (TNFα/TNFRI) | Kd (TNFα) | concentration above which no cells survived (cellular toxicity) [1] | toxicity precluding in vivo use [2] | concentration above which no cells survived (cellular toxicity) [3] | expression of cleaved caspase 3 in liver (immunohistochemistry) (Balb/C mice) | liver damage and hemorrhage (H&E histopathology) (Balb/C mice)
Cc1cc2occ(CN(C)CCN(C)Cc3cn(-c4cccc(C(F)(F)F)c4)c4ccccc34)c(=O)c2cc1C [SPD304] | 22 µM | 5.4 ± 0.2 µM | more than 10 µM | high toxicity | more than 30 µM | – | –
etanercept | – | – | – | – | – | reduced expression of cleaved caspase 3 | reduced liver damage and hemorrhage

— publication PMC5469758, “Identification of an in vivo orally active dual-binding protein-protein interaction inhibitor targeting TNFα through combined in silico/in vitro/in vivo screening” (Scientific Reports, 2017)
